Results from patent publication US20250304353A1, “ANTIMICROBIAL BOTTLE WITH ANTIMICROBIAL SEAL” (Microban Products Company, priority 2017, published 2025).

System: Aspergillus niger
Experiment: Anti-fungal efficacy of polypropylene cap, agar plate method AATCC 30 Part 3 (2017e)
Type: cell-based
Details: injection molded polypropylene cap with 2.0 wt % Microban IF1-5033-050 (0.1 wt % thiabendazole); MEA plates, up to 7 days at about 30° C.; two replicate sub-samples
Protocol: The anti-fungal efficacy of the polypropylene cap containing thiabendazole was tested. The fungicidal activity was determined using the agar plate method AATCC 30 Part 3 (2017e). Individual plates of Malt Extract Agar (MEA) were inoculated with Aspergillus niger from primary stock cultures held at about 2° C. to about 8° C. and then incubated at about 30° C.±2° C. for up to 7 days to produce mature spores. A spore suspension was prepared from the plates in 10 mL aliquots of sterile distilled water (SDW) and filtered using glass wool. The spore suspension was adjusted using SDW so that it contained ≥10^5 spores mL^−1. Two replicate sub-samples (i.e., the polypropylene cap with thiabendazole) were placed on the surface of individual MEA plates. A 100 μL aliquot of the spore suspension of Aspergillus niger was spread over the surface of both the sub-sample and the surrounding media. The sample plates were incubated for up to 7 days at about 30° C.±2° C. […] An injection molded polypropylene cap treated with 2.0 wt % of Microban IF1-5033-050 (i.e., 0.1 wt % of thiabendazole) was tested with Aspergillus niger.

## c1ccc2[nH]c(-c3cscn3)nc2c1 [thiabendazole]
  fungal growth (microscopic and/or macroscopic) on sub-sample and surrounding media: No surface growth
